Measured values taken from patent publication US20250346600A1, “TRICYCLIC DERIVATIVES AND RELATED USES” (MOMA Therapeutics, Inc., priority 2023, published 2025).
Read-outs that look alike come from different tables or passages of the source.

Assays:
HCT116 cells = test: HCT116 (MSI) 7 day viability, CellTiter Glo; type: cell-based; details: 7 days, read-out: HCT116 (MSI) Viability 7 Day Abs AC50
Protocol: (§1) Compounds were dissolved in DMSO to a concentration of 10 mM. Compounds were then serially diluted in 10 3-fold steps in DMSO using an EVO (Tecan). Plates were then spun down for 1 minute at 1,000 RPM at room temperature.
(§2) The colon carcinoma lines HCT116 (RRID: CVCL_0291) and HT29 (RRID: CVCL_0320) were obtained from ATCC. […] All cells were maintained at 37° C. with 5% CO2 incubator.
(§3) After harvesting, cells were spun down for 5 minutes at 1200 RPM. Cells were resuspended in 10 mL of growth media and counted using Countess (Thermo Fisher). Cell concentrations were adjusted to 50 cells/well for HCT116 and 500 cells/well for HT29. 50 μL of diluted cells were added to compound treated 384 well plates using a 12 channel, 300 uL electronic handheld pipette (Integra). Cell treated plates were placed in 37 C with 5% CO2 incubator for 7 days.
(§4) Afterwards, cells were removed from incubator and equilibrated to room temperature for 15 minutes. 35 uL of CellTiter Glo (Promega #G7573) reagent were added to each well using a 12 channel, 300 uL electronic handheld pipette (Integra). Plates were incubated for 20 minutes at room temperature. Luminescence quantification was performed using Envision (PerkinElmer).
(§5) For data analysis, the assay background signal was determined in wells containing medium, but no cells. Potencies were calculated by linear least squares fit to the four-parameter logistic IC50 equation. The reported IC50 values are the geometrical mean of at least 2 independent replicates.

HT29 cells = test: HT29 (MSS) 7 day viability, CellTiter Glo; type: cell-based; details: 7 days, read-out: HT29 (MSS) Viability 7 Day CTGAbs AC50
Protocol: as §1, §2, §3, §4, §5

[1] = target: Full length WRN protein (aa 2-1432) (Homo sapiens (Human), UniProt Q14191); test: WRN ATPase ADP-Glo biochemical assay, Assay Format B (100 μM ATP); details: 0.25 nM WRN, 100 nM C6.18 ssDNA, 60 min preincubation, read-out: ATPase ADPGlo AC50 (uM)- Assay Format B
Sequence of Full length WRN protein (aa 2-1432) (Q14191 2-1432): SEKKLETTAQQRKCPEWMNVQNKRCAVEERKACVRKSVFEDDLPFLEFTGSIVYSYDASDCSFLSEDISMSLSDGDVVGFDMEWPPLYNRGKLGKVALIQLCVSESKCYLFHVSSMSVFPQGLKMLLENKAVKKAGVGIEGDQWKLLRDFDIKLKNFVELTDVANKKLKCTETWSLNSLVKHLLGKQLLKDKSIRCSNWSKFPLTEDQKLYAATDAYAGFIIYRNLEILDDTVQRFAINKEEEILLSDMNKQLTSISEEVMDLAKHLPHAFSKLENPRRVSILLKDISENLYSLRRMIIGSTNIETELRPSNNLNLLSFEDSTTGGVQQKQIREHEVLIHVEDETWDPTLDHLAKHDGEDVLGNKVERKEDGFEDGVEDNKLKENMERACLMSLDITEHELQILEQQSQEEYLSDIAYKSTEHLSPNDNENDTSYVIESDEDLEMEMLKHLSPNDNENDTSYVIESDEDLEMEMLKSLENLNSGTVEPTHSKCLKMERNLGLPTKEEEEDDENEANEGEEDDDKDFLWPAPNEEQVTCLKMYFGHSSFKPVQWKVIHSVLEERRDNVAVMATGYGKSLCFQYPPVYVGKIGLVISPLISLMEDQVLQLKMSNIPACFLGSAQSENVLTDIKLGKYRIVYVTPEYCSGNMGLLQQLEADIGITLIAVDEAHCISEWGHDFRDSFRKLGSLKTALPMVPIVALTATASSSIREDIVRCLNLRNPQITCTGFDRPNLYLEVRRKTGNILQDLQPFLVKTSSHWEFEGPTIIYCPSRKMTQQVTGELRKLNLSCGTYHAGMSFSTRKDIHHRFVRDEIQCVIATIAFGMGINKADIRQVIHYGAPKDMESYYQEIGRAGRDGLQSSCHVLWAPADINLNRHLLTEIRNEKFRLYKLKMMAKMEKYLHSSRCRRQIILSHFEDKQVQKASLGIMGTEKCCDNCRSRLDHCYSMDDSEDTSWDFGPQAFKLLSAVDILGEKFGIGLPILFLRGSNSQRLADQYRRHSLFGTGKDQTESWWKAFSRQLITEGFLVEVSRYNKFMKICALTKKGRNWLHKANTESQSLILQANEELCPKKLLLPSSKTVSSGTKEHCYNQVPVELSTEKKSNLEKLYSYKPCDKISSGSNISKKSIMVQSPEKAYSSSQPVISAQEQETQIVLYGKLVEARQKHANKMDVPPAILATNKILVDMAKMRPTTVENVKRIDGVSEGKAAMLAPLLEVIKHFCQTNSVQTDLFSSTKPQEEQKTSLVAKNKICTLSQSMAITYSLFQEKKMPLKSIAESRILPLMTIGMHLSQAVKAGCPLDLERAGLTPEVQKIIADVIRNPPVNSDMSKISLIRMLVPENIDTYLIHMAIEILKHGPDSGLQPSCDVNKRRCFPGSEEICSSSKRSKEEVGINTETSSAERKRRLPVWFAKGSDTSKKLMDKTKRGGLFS

| Molecule | AC50 (HCT116 cells) [nM] | AC50 (HT29 cells) [nM] | AC50 [1] [µM] | AC50 (HCT116 cells; Homo sapiens, HCT-116, 168 h) [nM] | AC50 (HT29 cells; Homo sapiens, HT-29, 168 h) [nM] |
| --- | --- | --- | --- | --- | --- |
| 1-(5-(7-bromo-1H- benzo[d]imidazole-4- carbonyl)-2-(4- cyclobutylphenyl)- 2,3,4,5,5a,6-hexahydro- 1,2,5,7- tetraazaspiro[benzo[cd] azulene-9,1′- cyclopropan]-1(9a),2a- dien-7(8H)-yl)prop-2-en- 1-one [Compound 169] | 1 to 100 | > 3000 |  |  |  |
| C=CC(=O)N1CCc2nn(-c3ccc(C(C)C)c(F)c3O)c3c2C(C1)N(C(=O)c1cnc(C(F)(F)F)c(O)c1)CC3 (stereo not shown) [Compound 64, 1-(2-(3-fluoro-2-hydroxy-4-isopropylphenyl)-5-(5-hydroxy-6-(trifluoromethyl)nicotinoyl)-2,3,4,5,5a,6,8,9-octahydro-7H-1,2,5,7-tetraazabenzo[cd]azulen-7-yl)prop-2-en-1-one] |  |  | 0.015 to 0.055 | 1 to 100 | > 3000 |
| C=CC(=O)N1CCc2nn(-c3ccc(C4CCC4)c(F)c3N)c3c2C(C1)N(C(=O)c1cnc(C(F)(F)F)c(O)c1)CC3 (stereo not shown) [Compound 71, 1-(2-(2-amino-4-cyclobutyl-3-fluorophenyl)-5-(5-hydroxy-6-(trifluoromethyl)nicotinoyl)-2,3,4,5,5a,6,8,9-octahydro-7H-1,2,5,7-tetraazabenzo[cd]azulen-7-yl)prop-2-en-1-one] |  |  | 0.005 to 0.015 | 1 to 100 | > 3000 |
| C=CC(=O)N1CCc2nn(-c3ccc(C4CCC4)cc3O)c3c2C(C1)N(C(=O)c1ccc(C(F)(F)F)nc1N)CC3 (stereo not shown) [Compound 76, 1-(5-(2-amino-6-(trifluoromethyl)nicotinoyl)-2-(4-cyclobutyl-2-hydroxyphenyl)-2,3,4,5,5a,6,8,9-octahydro-7H-1,2,5,7-tetraazabenzo[cd]azulen-7-yl)prop-2-en-1-one] |  |  | 0.005 to 0.015 | 1 to 100 | > 3000 |
| C=CC(=O)N1CCc2nn(-c3ccc(C4CCC4)cc3O)c3c2C(C1)N(C(=O)c1ccc(Br)c2[nH]c(OC(F)F)nc12)CC3 (stereo not shown) [Compound 88, 1-(5-(7-bromo-2-(difluoromethoxy)-1H-benzo[d]imidazole-4-carbonyl)-2-(4-cyclobutyl-2-hydroxyphenyl)-2,3,4,5,5a,6,8,9-octahydro-7H-1,2,5,7-tetraazabenzo[cd]azulen-7-yl)prop-2-en-1-one] |  |  | 0.005 to 0.015 | 1 to 100 | > 3000 |
| C=CC(=O)N1CCc2nn(-c3ccc(C4CCC4)cc3O)c3c2C(C1)N(C(=O)c1cnc(Br)c(OC(F)F)c1)CC3 (stereo not shown) [Compound 94, 1-(5-(6-bromo-5-(difluoromethoxy)nicotinoyl)-2-(4-cyclobutyl-2-hydroxyphenyl)-2,3,4,5,5a,6,8,9-octahydro-7H-1,2,5,7-tetraazabenzo[cd]azulen-7-yl)prop-2-en-1-one] |  |  | 0.015 to 0.055 | 1 to 100 | > 3000 |
| C=CC(=O)N1CCOc2nn(-c3ccc(C(C)C)c(O)n3)c3c2C(C1)N(C(=O)c1ccc(Br)c2[nH]cnc12)CC3 (stereo not shown) [Compound 105, 1-(5-(7-bromo-1H-benzo[d]imidazole-4-carbonyl)-2-(6-hydroxy-5-isopropylpyridin-2-yl)-2,3,4,5,5a,6,8,9-octahydro-7H-10-oxa-1,2,5,7-tetraazacycloocta[cd]inden-7-yl)prop-2-en-1-one] |  |  |  | > 1000 | > 3000 |
| C=CC(=O)N1CCc2nn(-c3ccc(C4CCC4)cc3O)c3c2C(C1)N(C(=O)c1cnc(Br)cc1N)CC3 (stereo not shown) [Compound 132, 1-(5-(4-amino-6-bromonicotinoyl)-2-(4-cyclobutyl-2-hydroxyphenyl)-2,3,4,5,5a,6,8,9-octahydro-7H-1,2,5,7-tetraazabenzo[cd]azulen-7-yl)prop-2-en-1-one] |  |  | 0.0015 to 0.005 | 1 to 100 | > 3000 |
| C=CC(=O)N1CCc2nn(-c3ccc(C4CCC4)cc3O)c3c2C(C1)N(C(=O)c1cnc(Cl)c(O)c1)CC3 (stereo not shown) [Compound 140, 1-(5-(6-chloro-5-hydroxynicotinoyl)-2-(4-cyclobutyl-2-hydroxyphenyl)-2,3,4,5,5a,6,8,9-octahydro-7H-1,2,5,7-tetraazabenzo[cd]azulen-7-yl)prop-2-en-1-one] |  |  | 0.005 to 0.015 | 1 to 100 | > 3000 |
| C=CC(=O)N1CCc2nn(-c3ccc(C4CCC4)cc3)c3c2C(C1)N(C(=O)c1ccc(C(F)(F)F)c2[nH]nc(N)c12)CC3 (stereo not shown) [Compound 147, 1-(5-(3-amino-7-(trifluoromethyl)-1H-indazole-4-carbonyl)-2-(4-cyclobutylphenyl)-2,3,4,5,5a,6,8,9-octahydro-7H-1,2,5,7-tetraazabenzo[cd]azulen-7-yl)prop-2-en-1-one] |  |  | 0.005 to 0.015 | 1 to 100 | > 3000 |
| C=CC(=O)N1CCc2nn(-c3ccc(C4CCC4)cc3O)c3c2C(C1)N(C(=O)c1cnc(OC(F)F)cc1N)CC3 (stereo not shown) [Compound 164, 1-(5-(4-amino-6-(difluoromethoxy)nicotinoyl)-2-(4-cyclobutyl-2-hydroxyphenyl)-2,3,4,5,5a,6,8,9-octahydro-7H-1,2,5,7-tetraazabenzo[cd]azulen-7-yl)prop-2-en-1-one] |  |  | 0.0015 to 0.005 | 1 to 100 | > 3000 |
| C=CC(=O)N1CCc2nn(-c3ccc(C4CCC4)cc3O)c3c2C(C1)N(C(=O)c1cc(F)c(C(F)(F)F)nc1N)CC3 (stereo not shown) [Compound 165, 1-(5-(2-amino-5-fluoro-6-(trifluoromethyl)nicotinoyl)-2-(4-cyclobutyl-2-hydroxyphenyl)-2,3,4,5,5a,6,8,9-octahydro-7H-1,2,5,7-tetraazabenzo[cd]azulen-7-yl)prop-2-en-1-one] |  |  | 0.015 to 0.055 | 1 to 100 | > 3000 |
| C=CC(=O)N1CCc2nn(-c3ccc(C(C)C)cc3)c3c2C(C1C)N(C(=O)c1cnc(C(F)(F)F)cc1N)CC3 (stereo not shown) [Compound 168, 1-(5-(4-amino-6-(trifluoromethyl)nicotinoyl)-2-(4-isopropylphenyl)-6-methyl-2,3,4,5,5a,6,8,9-octahydro-7H-1,2,5,7-tetraazabenzo[cd]azulen-7-yl)prop-2-en-1-one] |  |  | 0.005 to 0.015 | 1 to 100 | > 3000 |
| C=CC(=O)N1CCc2nn(-c3ccc(C4CCC4)cc3C#N)c3c2C(C1)N(C(=O)c1cnc(C(F)(F)F)cc1N)CC3 (stereo not shown) [Compound 171, 2-(7-acryloyl-5-(4-amino-6-(trifluoromethyl)nicotinoyl)-3,4,5,5a,6,7,8,9-octahydro-2H-1,2,5,7-tetraazabenzo[cd]azulen-2-yl)-5-cyclobutylbenzonitrile] |  |  | 0.015 to 0.055 | 1 to 100 | > 3000 |
| C=CC(=O)N1CCc2nn(-c3ccc(C4CC4)cc3O)c3c2C(C1)N(C(=O)c1ccc(C(F)(F)F)nc1N)CC3 (stereo not shown) [Compound 172, 1-(5-(2-amino-6-(trifluoromethyl)nicotinoyl)-2-(4-cyclopropyl-2-hydroxyphenyl)-2,3,4,5,5a,6,8,9-octahydro-7H-1,2,5,7-tetraazabenzo[cd]azulen-7-yl)prop-2-en-1-one] |  |  | 0.005 to 0.015 | 1 to 100 | > 3000 |
| C=CC(=O)N1CCc2nn(-c3ccc(C(C)C)cc3O)c3c2C(C1)N(C(=O)c1ccc(C(F)(F)F)nc1N)CC3 (stereo not shown) [Compound 173, 1-(5-(2-amino-6-(trifluoromethyl)nicotinoyl)-2-(2-hydroxy-4-isopropylphenyl)-2,3,4,5,5a,6,8,9-octahydro-7H-1,2,5,7-tetraazabenzo[cd]azulen-7-yl)prop-2-en-1-one] |  |  | 0.005 to 0.015 | 1 to 100 | > 3000 |
| C=CC(=O)N1CCc2nn(-c3ccc(C4CC4)cc3O)c3c2C(C1)N(C(=O)c1cnc(C(F)(F)F)c(O)c1)CC3 (stereo not shown) [Compound 175, 1-(2-(4-cyclopropyl-2-hydroxyphenyl)-5-(5-hydroxy-6-(trifluoromethyl)nicotinoyl)-2,3,4,5,5a,6,8,9-octahydro-7H-1,2,5,7-tetraazabenzo[cd]azulen-7-yl)prop-2-en-1-one] |  |  | 0.0015 to 0.005 | 100 to 250 | > 3000 |
| C=CC(=O)N1CCc2nn(-c3ccc(C(C)C)cc3O)c3c2C(C1)N(C(=O)c1cnc(C(F)(F)F)c2[nH]ncc12)CC3 (stereo not shown) [Compound 176, 1-(2-(2-hydroxy-4-isopropylphenyl)-5-(7-(trifluoromethyl)-1H-pyrazolo[3,4-c]pyridine-4-carbonyl)-2,3,4,5,5a,6,8,9-octahydro-7H-1,2,5,7-tetraazabenzo[cd]azulen-7-yl)prop-2-en-1-one] |  |  | 0.0015 to 0.005 | 1 to 100 | > 3000 |
| C=CC(=O)N1CCc2nn(-c3ccc(C4CC4)cc3)c3c2C(C1)N(C(=O)c1cnc(OC(F)F)cc1N)CC3 (stereo not shown) [Compound 177, 1-(5-(4-amino-6-(difluoromethoxy)nicotinoyl)-2-(4-cyclopropylphenyl)-2,3,4,5,5a,6,8,9-octahydro-7H-1,2,5,7-tetraazabenzo[cd]azulen-7-yl)prop-2-en-1-one] |  |  | 0.005 to 0.015 | 1 to 100 | > 3000 |
